Measurements from patent publication US20240093191A1, “COMPOSITIONS AND METHODS FOR TREATING DISEASE ASSOCIATED WITH DUX4 OVEREXPRESSION” (RESEARCH INSTITUTE AT NATIONWIDE CHILDREN'S HOSPITAL, priority 2021, published 2024).

What was measured:
Format in all cases: cell-based, human
[1] = test system: mir-675-5p; assay: ddPCR of mir-675-5p in drug-treated DUX4-transfected HEK293 cells; settings: vs ethanol vehicle
Procedure: (§1) Digital Droplet PCR (ddPCR). For mir-675 and mi405 constructs, RNA extraction was carried out as described for QPCR above. For cDNA synthesis, the TaqMan advanced cDNA synthesis kit (Thermo Fisher) was used and cDNA was prepared by following manufacturer's instructions. ddPCR was carried out using 1× ddPCR Supermix for probes (No dUTP) (Bio-Rad), 1× commercially available mir-675 advanced TaqMan probe, or a custom made mi405 advanced TaqMan probe (ThermoFisher) and 50 ng of cDNA. For DUX4 cDNA synthesis, the High-Capacity cDNA Reverse Transcription Kit (Applied Biosystems) was used according to manufacturer's instructions. Within the same cDNA reaction, 1×RT random hexamer primers and 25 pmoles of the Oligo(dT) primer were used to generate cDNA for DUX4 and DUX4-responsive biomarkers and for mouse Rpl13A, used as a reference gene. To quantify DUX4, the ddPCR reaction mixture (20 μL) contained 1× ddPCR Evagreen Supermix (Bio-Rad), 1 μM of forward and reverse DUX4 primers (Sharma et al., J Genet Syndr Gene Ther 2016 August; 7(4):303. doi: 10.4172/2157-7412.1000303. Epub 2016 Aug. 8), and 50 ng of cDNA. To quantify Rpl13A and DUX4-responsive biomarkers (Trim36 and Wfdc3), the 1× ddPCR Supermix for probes (No dUTP) and TaqMan specific probes were used for each of the genes. Droplets were generated using the Automatic Droplet generator QX200 AutoDG (Bio-Rad), the reactions were amplified in a C1000 Touch™ Thermal Cycler with 96-Deep Well Reaction Module (Bio-Rad). Cycling conditions were set up following the QX200 ddPCR Evagreen Supermix protocol. All assays are compatible with an annealing temperature of 58° C. Droplets were then read using the QX200 droplet reader (Bio-Rad). Finally, data were analyzed using the QuantaSoft analysis software (Bio-Rad). For quantification, each reaction of 20 μL was estimated to give at least 10,000 acceptable droplets.
(§2) Three small molecule candidates (β-estradiol, a combination of β-estradiol+medroxyprogesterone acetate (MPA), and melatonin) were tested for their ability to upregulate mir-675-5p in HEK293 cells and in human myotubes. HEK293 cells normally express minimal amounts of mir-675. […] 24 hours after treatment, mir-675-5p expression was measured by Droplet Digital PCR (ddPCR).
In FIG. 28, β-estradiol, medroxyprogesterone acetate (MPA) and melatonin increased mir-675 expression and reduced the expression of DUX4 and DUX4-induced biomarker TRIM43 in HEK293 cells. […] The effects of these drugs were evaluated by comparison to ethanol (vehicle)-treated cells. […] The quantification (percent change) of gene expression from HEK293 cells treated with β-estradiol, β-estradiol+MPA, or melatonin was measured using droplet digital PCR (ddPCR) and is reported in Table 3 set out below. […]

[2] = test system: DUX4; assay: ddPCR of transfected DUX4 in drug-treated HEK293 cells; settings: 20 μM, vs ethanol vehicle
Procedure: as §1, with “Cycling conditions were set up following the QX200 ddPCR Evagreen Supermix protocol. All assays are compatible with an annealing temperature of 58° C.” left out
as §2, with “myotubes.” for “myotubes. HEK293 cells normally express minimal amounts of mir-675.”, “(ddPCR). […]” for “(ddPCR).”

[3] = test system: TRIM43; assay: ddPCR of TRIM43 in drug-treated DUX4-transfected HEK293 cells; settings: 20 μM; HEK293; vs ethanol vehicle
Procedure: as §1
Three small molecule candidates (β-estradiol, a combination of β-estradiol+medroxyprogesterone acetate (MPA), and melatonin) were tested for their ability to upregulate mir-675-5p in HEK293 cells and in human myotubes. HEK293 cells normally express minimal amounts of mir-675. HEK293 cells were treated with (1) 20 μM β-estradiol alone; (2) 10 μM or 20 μM β-estradiol+MPA; or (3) 20 μM or 40 μM melatonin. 24 hours after treatment, mir-675-5p expression was measured by Droplet Digital PCR (ddPCR).
In FIG. 28, β-estradiol, medroxyprogesterone acetate (MPA) and melatonin increased mir-675 expression and reduced the expression of DUX4 and DUX4-induced biomarker TRIM43 in HEK293 cells. Droplet Digital PCR (ddPCR) was carried out to measure mir-675-5p, DUX4 and TRIM43 levels. HEK293 cells were transfected with DUX4 and were treated with two drugs individually (i.e., β-estradiol and melatonin) or with a combination of β-estradiol and MPA at 10, 20 or 40 μM at the time of transfection. The effects of these drugs were evaluated by comparison to ethanol (vehicle)-treated cells. Numbers correspond to n=3 independent experiments (ANOVA, P<0.0001). The quantification (percent change) of gene expression from HEK293 cells treated with β-estradiol, β-estradiol+MPA, or melatonin was measured using droplet digital PCR (ddPCR) and is reported in Table 3 set out below. Anti-mir-675 is an antagomiR targeting the mature sequence of mir-675-5p, inhibiting its function as inhibitor of DUX4 gene expression. CMV.DUX4-mir-675Res is an expression plasmid encoding a DUX4 mutant sequence. […]

[4] = test system: mir-675-5p; assay: ddPCR of mir-675-5p in drug-treated FSHD myotubes; settings: 20 μM
Description: (§3) Primary Cell Culture. 15A, 17A sand 18A FSHD human myoblasts and 15V control human myoblasts were provided by the UMMS Wellstone Center for FSHD and have been previously characterized [Jones et al., Hum. Mol. Genet. 21: 4419-4430 (2012)]. Previously immortalized 15A cell lines have a single 4qA permissive allele. […] 15V cell lines have two 4qB non-permissive alleles. Cells were propagated by feeding them every two days with new LHCN medium [4:1 DMEM:Medium 199 (Gibco) supplemented with 15% characterized FBS (Corning), 0.02 M HEPES (Thermo Fisher), 0.03 μg/mL ZnSO4 (Honeywell Fluka), 1.4 μg/mL Vitamin B12 (Sigma-Aldrich), 0.055 μg/mL dexamethasone (Sigma-Aldrich), 1% antibiotics/antimycotics (Gibco), 2.5 ng/mL hepatocyte growth factor (Millipore) and 10 ng/mL basic fibroblast growth factor (Millipore)]. For differentiation, myoblasts were switched to a differentiation medium [4:1 DMEM: Medium 199 (Gibco) supplemented with 15% KnockOut Serum Replacement (ThermoFisher Scientific), 2 mM L-glutamine (Gibco), 1% antibiotics/antimycotics (Gibco), 1 mM sodium pyruvate (Gibco) and 20 mM HEPES (ThermoFisher Scientific)] when cells were at >90% confluency. Before adding differentiation medium, cells were washed with PBS (Gibco). Cells were seeded with new differentiation medium every three days for up to 7 days. To detach cells, TrypLE™ Express, phenol red (ThermoFisher Scientific) was used.
as §1
(§4) Next, the effects of the three treatment regimens were tested on the expression of endogenous mir-675-5p, DUX4 and TRIM43 in 15A, 17A and 18A FSHD differentiated muscle cell lines (myotubes) (FIG. 29 and Table 4). […] Mol. Genet. 21: 4419-30 (2012)]. In FIG. 29, β-estradiol, medroxyprogesterone acetate (MPA) and melatonin increased mir-675 expression and reduced the expression of DUX4 and the DUX4-induced biomarker TRIM43 in three FSHD affected myotube lines. Droplet digital PCR (ddPCR) was used to measure mir-675-5p, DUX4 and TRIM43 levels in 15A (A), 17A (B) and 18A (C) FSHD affected myotubes five days after differentiation. […]

[5] = test system: DUX4; assay: ddPCR of DUX4 in drug-treated FSHD myotubes; settings: 20 μM
Description: as §3, §1, §4

[6] = test system: TRIM43; assay: ddPCR of TRIM43 in drug-treated FSHD myotubes; settings: 20 μM
Description: as §3, §1, §4

`C[C@]12CC[C@@H]3c4ccc(O)cc4CC[C@H]3[C@@H]1CC[C@@H]2O` [β-estradiol] was tested, and the “mir-675-5p (% increase)” value ([1]; 10 μM) was 22 ± 06%, the “mir-675-5p (% increase)” value ([1]; 20 μM) was 92 ± 34% and the “DUX4 (% decrease)” value [2] was “significant decrease”. For the same compound, the “TRIM43 (% decrease)” value [3] was “significant decrease”, the “mir-675-5p (% increase)” value ([4]; 15A 5DD myotubes, N = 6) was 47 ± 11 | *, % and the “mir-675-5p (% increase)” value ([4]; 17A 5DD myotubes, N = 3) was 38 ± 09 | *, %. The “mir-675-5p (% increase)” value ([4]; 18A 5DD myotubes, N = 3) was 382 ± 44 | ***, %, the “DUX4 (% decrease)” value ([5]; 15A 5DD myotubes, N = 6) was 70 ± 38 | *, % and the “DUX4 (% decrease)” value ([5]; 17A 5DD myotubes, N = 3) was 63 ± 19 | *, %. For the same compound, the “DUX4 (% decrease)” value ([5]; 18A 5DD myotubes, N = 3) was 49 ± 19 | *, %, the “TRIM43 (% decrease)” value ([6]; 15A 5DD myotubes, N = 6) was 46 ± 40 | NS, % and the “TRIM43 (% decrease)” value ([6]; 17A 5DD myotubes, N = 3) was 31 ± 12 | *, %. For the same compound, the “TRIM43 (% decrease)” value ([6]; 18A 5DD myotubes, N = 3) was 57 ± 07 | ** , %.
